Data published in PMC5218480 (PLoS ONE, 2017).

System: MV-4-11 cells
Assay: Gene expression microarray analysis (Affymetrix PrimeView) and GSEA
Type: cell-based, human
Design: RFU PODN (11730768_x_at) / Fold change /veh PODN (11730768_x_at) / RFU LINC00158 (11744669_a_at) / Fold change /veh LINC00158 (11744669_a_at) / RFU DUSP10 (11751237_a_at) / Fold change /veh DUSP10 (11751237_a_at) / RFU ID3 (11757404_x_at) / Fold change /veh ID3 (11757404_x_at) / RFU PLEKHG5 (11737974_s_at) / Fold change /veh PLEKHG5 (11737974_s_at) / RFU LRRC4B (11730491_at) / Fold change /veh LRRC4B (11730491_at) / RFU GIMAP4 (11747438_a_at) / Fold change /veh GIMAP4 (11747438_a_at) / RFU KRT8 (11758183_x_at) / Fold change /veh KRT8 (11758183_x_at) / RFU CNN1 (11734310_a_at) / Fold change /veh CNN1 (11734310_a_at) / RFU VPS37D (11726825_at) / Fold change /veh VPS37D (11726825_at) / RFU C10orf10 (11716522_x_at) / Fold change /veh C10orf10 (11716522_x_at) / RFU KIR2DL2 /// KIR2DL4 /// KIR2DL5A /// KIR2DL5B /// KIR2DS1 /// KIR2DS2 /// KIR2DS3 /// KIR2DS4 /// KIR3DL3 /// KIR3DL3 /// KIR3DS1 (11738374_at) / Fold change /veh KIR2DL2 /// KIR2DL4 /// KIR2DL5A /// KIR2DL5B /// KIR2DS1 /// KIR2DS2 /// KIR2DS3 /// KIR2DS4 /// KIR3DL3 /// KIR3DL3 /// KIR3DS1 (11738374_at) / RFU C1QL1 (11718748_at) / Fold change /veh C1QL1 (11718748_at) / RFU TMPRSS4 (11747572_a_at) / Fold change /veh TMPRSS4 (11747572_a_at) / RFU HAMP (11756126_x_at) / Fold change /veh HAMP (11756126_x_at) / RFU RNFT2 (11725882_a_at) / Fold change /veh RNFT2 (11725882_a_at) / RFU NR4A2 (11747474_a_at) / Fold change /veh NR4A2 (11747474_a_at) / RFU ABCC12 (11746883_a_at) / Fold change /veh ABCC12 (11746883_a_at) / RFU TMEM136 (11760407_x_at) / Fold change /veh TMEM136 (11760407_x_at) / RFU CLDN22 /// WWC2 (11732394_at) / Fold change /veh CLDN22 /// WWC2 (11732394_at) / RFU HLA-DPB1 (11760878_x_at) / Fold change /veh HLA-DPB1 (11760878_x_at) / RFU SPINT1 (11716480_a_at) / Fold change /veh SPINT1 (11716480_a_at) / RFU GAP43 (11754022_s_at) / Fold change /veh GAP43 (11754022_s_at) / RFU A4GNT (11735810_at) / Fold change /veh A4GNT (11735810_at) / RFU PRB3 (11715151_x_at) / Fold change /veh PRB3 (11715151_x_at) / RFU TUBB4B (11761932_at) / Fold change /veh TUBB4B (11761932_at) / RFU CAPN14 (11732068_a_at) / Fold change /veh CAPN14 (11732068_a_at) / RFU TMCC2 (11721928_a_at) / Fold change /veh TMCC2 (11721928_a_at) / RFU IRGQ (11745062_a_at) / Fold change /veh IRGQ (11745062_a_at) / RFU FAM174B (11720279_a_at) / Fold change /veh FAM174B (11720279_a_at) / RFU TMPRSS4 (11748680_a_at) / Fold change /veh TMPRSS4 (11748680_a_at) / RFU FAM212B (11763350_a_at) / Fold change /veh FAM212B (11763350_a_at) / RFU PLEKHG5 (11743358_a_at) / Fold change /veh PLEKHG5 (11743358_a_at) / RFU ZSCAN30 (11745921_a_at) / Fold change /veh ZSCAN30 (11745921_a_at) / RFU CMKLR1 (11741424_a_at) / Fold change /veh CMKLR1 (11741424_a_at) / RFU LOC101060620 /// MAPK8IP1 (11723275_at) / Fold change /veh LOC101060620 /// MAPK8IP1 (11723275_at) / RFU SPTSSB (11747773_x_at) / Fold change /veh SPTSSB (11747773_x_at) / RFU PRSS12 (11739890_at) / Fold change /veh PRSS12 (11739890_at) / RFU BIN1 (11741810_x_at) / Fold change /veh BIN1 (11741810_x_at) / RFU WNT11 (11732464_a_at) / Fold change /veh WNT11 (11732464_a_at) / RFU C10orf10 (11716521_a_at) / Fold change /veh C10orf10 (11716521_a_at) / RFU C5orf56 (11738089_at) / Fold change /veh C5orf56 (11738089_at) / RFU CYB561 (11721691_x_at) / Fold change /veh CYB561 (11721691_x_at) / RFU ANKRD19P (11752326_a_at) / Fold change /veh ANKRD19P (11752326_a_at) / RFU OR2T12 /// OR2T33 /// OR2T8 (11738714_s_at) / Fold change /veh OR2T12 /// OR2T33 /// OR2T8 (11738714_s_at) / RFU VCAN (11748164_a_at) / Fold change /veh VCAN (11748164_a_at) / RFU JSRP1 (11732532_at) / Fold change /veh JSRP1 (11732532_at) / RFU KRTAP10-11 (11738290_x_at) / Fold change /veh KRTAP10-11 (11738290_x_at) / RFU MYO3A (11730013_a_at) / Fold change /veh MYO3A (11730013_a_at) / RFU EBF3 (11725865_a_at) / Fold change /veh EBF3 (11725865_a_at) / RFU CAMK2N1 (11719241_x_at) / Fold change /veh CAMK2N1 (11719241_x_at) / RFU C5orf56 (11738088_a_at) / Fold change /veh C5orf56 (11738088_a_at) / RFU OLFML3 (11715873_a_at) / Fold change /veh OLFML3 (11715873_a_at) / RFU LOC100653217 /// NTM (11731650_a_at) / Fold change /veh LOC100653217 /// NTM (11731650_a_at) / RFU MAPK11 (11762145_a_at) / Fold change /veh MAPK11 (11762145_a_at) / RFU FIZ1 (11724087_x_at) / Fold change /veh FIZ1 (11724087_x_at) / RFU OASL (11726364_x_at) / Fold change /veh OASL (11726364_x_at) / RFU SOX15 (11748057_x_at) / Fold change /veh SOX15 (11748057_x_at) / RFU CD79A (11719716_a_at) / Fold change /veh CD79A (11719716_a_at) / RFU HIST1H1D (11736915_at) / Fold change /veh HIST1H1D (11736915_at) / RFU CASKIN2 (11723855_a_at) / Fold change /veh CASKIN2 (11723855_a_at) / RFU LOC730098 (11760151_x_at) / Fold change /veh LOC730098 (11760151_x_at) / RFU OR4N2 (11742367_at) / Fold change /veh OR4N2 (11742367_at) / RFU PRRT2 (11749266_a_at) / Fold change /veh PRRT2 (11749266_a_at) / RFU SNX32 (11753110_a_at) / Fold change /veh SNX32 (11753110_a_at) / RFU CDHR5 (11726645_a_at) / Fold change /veh CDHR5 (11726645_a_at) / RFU RCAN1 (11760418_a_at) / Fold change /veh RCAN1 (11760418_a_at) / RFU FAM167A (11723789_a_at) / Fold change /veh FAM167A (11723789_a_at) / RFU FAM26E (11764081_at) / Fold change /veh FAM26E (11764081_at) / RFU ISYNA1 (11749810_s_at) / Fold change /veh ISYNA1 (11749810_s_at) / RFU ACY1 (11761880_at) / Fold change /veh ACY1 (11761880_at) / RFU 11764098_at / Fold change /veh 11764098_at / RFU SAMD14 (11745864_x_at) / Fold change /veh SAMD14 (11745864_x_at) / RFU NPB (11741838_a_at) / Fold change /veh NPB (11741838_a_at) / RFU TMPRSS6 (11731388_a_at) / Fold change /veh TMPRSS6 (11731388_a_at) / RFU KRTAP10-2 (11738614_at) / Fold change /veh KRTAP10-2 (11738614_at) / RFU ARHGAP8 /// PRR5-ARHGAP8 (11727945_x_at) / Fold change /veh ARHGAP8 /// PRR5-ARHGAP8 (11727945_x_at) / RFU KRTAP5-7 /// NADSYN1 (11734609_at) / Fold change /veh KRTAP5-7 /// NADSYN1 (11734609_at) / RFU RASL12 (11751679_a_at) / Fold change /veh RASL12 (11751679_a_at) / RFU CDKN2B (11736163_a_at) / Fold change /veh CDKN2B (11736163_a_at) / RFU PRF1 (11729649_at) / Fold change /veh PRF1 (11729649_at) / RFU, ZNF638 /// ZNF638-IT1 / Fold change vs veh, ZNF638 /// ZNF638-IT1 / RFU, PANK3 / Fold change vs veh, PANK3 / RFU, SH3YL1 / Fold change vs veh, SH3YL1 / RFU, ZEB2 / Fold change vs veh, ZEB2 / RFU, NRIP1 / Fold change vs veh, NRIP1 / RFU, PTTG1IP / Fold change vs veh, PTTG1IP / RFU, CAPN2 / Fold change vs veh, CAPN2 / RFU, MED14 / Fold change vs veh, MED14 / RFU, SNORA58 / Fold change vs veh, SNORA58 / RFU, C1orf63 / Fold change vs veh, C1orf63 / RFU, LRRFIP1 / Fold change vs veh, LRRFIP1 / RFU, NDUFAF7 / Fold change vs veh, NDUFAF7 / RFU, SLC12A2 / Fold change vs veh, SLC12A2 / RFU, IBTK / Fold change vs veh, IBTK / RFU, ESF1 / Fold change vs veh, ESF1 / Fold change vs veh, TMEM50B / RFU, TAOK1 / Fold change vs veh, TAOK1 / RFU, ACBD3 / Fold change vs veh, ACBD3 / RFU, TMA16 / Fold change vs veh, TMA16 / RFU, RWDD3 / Fold change vs veh, RWDD3 / RFU, BCAT1 / Fold change vs veh, BCAT1 / RFU, EDEM3 / Fold change vs veh, EDEM3 / RFU, TMEM33 / Fold change vs veh, TMEM33 / RFU, WDR75 / Fold change vs veh, WDR75 / RFU, AHCTF1 / Fold change vs veh, AHCTF1 / RFU, TFRC / Fold change vs veh, TFRC / RFU, ZDHHC17 / Fold change vs veh, ZDHHC17 / RFU, NOM1 / Fold change vs veh, NOM1 / RFU, ARL8B / Fold change vs veh, ARL8B / RFU, ZBTB11 / Fold change vs veh, ZBTB11 / RFU, TAMM41 / Fold change vs veh, TAMM41 / RFU, KIAA1704 /// LOC100996395 / Fold change vs veh, KIAA1704 /// LOC100996395 / RFU, ING1 / Fold change vs veh, ING1 / RFU, TRMT61B / Fold change vs veh, TRMT61B / RFU, FUBP3 / Fold change vs veh, FUBP3 / RFU, TP53 / Fold change vs veh, TP53 / RFU, TNKS2 / Fold change vs veh, TNKS2 / RFU, ZFP14 / Fold change vs veh, ZFP14 / RFU, ACTR2 / Fold change vs veh, ACTR2 / RFU, PPP3R1 / Fold change vs veh, PPP3R1 / RFU, PIK3R1 / Fold change vs veh, PIK3R1 / RFU, HNRNPA1 / Fold change vs veh, HNRNPA1 / RFU, RNF170 / Fold change vs veh, RNF170 / RFU, ZNF28 / Fold change vs veh, ZNF28 / RFU, RNGTT / Fold change vs veh, RNGTT / RFU, OGT / Fold change vs veh, OGT / RFU, BRD1 / Fold change vs veh, BRD1 / RFU, MARS / Fold change vs veh, MARS / RFU, ZNF655 / Fold change vs veh, ZNF655 / RFU, FAHD1 / Fold change vs veh, FAHD1 / RFU, BDP1 / Fold change vs veh, BDP1 / RFU, LRRCC1 / Fold change vs veh, LRRCC1 / RFU, ARID1A / Fold change vs veh, ARID1A / RFU, ZNF146 / Fold change vs veh, ZNF146 / RFU, ZNF330 / Fold change vs veh, ZNF330 / RFU, GPN3 / Fold change vs veh, GPN3 / RFU, C9orf123 / Fold change vs veh, C9orf123 / RFU, N4BP2L2 / Fold change vs veh, N4BP2L2 / RFU, ARFIP1 / Fold change vs veh, ARFIP1 / RFU, FAM179B / Fold change vs veh, FAM179B / RFU, BCL10 / Fold change vs veh, BCL10 / RFU, UHRF1BP1L / Fold change vs veh, UHRF1BP1L / RFU, BET1 / Fold change vs veh, BET1 / RFU, CNOT2 / Fold change vs veh, CNOT2 / RFU, ZNF268 / Fold change vs veh, ZNF268 / Fold change vs veh, ZNF507 / RFU, DGCR2 / Fold change vs veh, DGCR2 / RFU, WDSUB1 / Fold change vs veh, WDSUB1 / Fold change vs veh, HSP90B1 /// MIR3652 / RFU, ADSS / Fold change vs veh, ADSS / RFU, GK / Fold change vs veh, GK / RFU, ZNF148 / Fold change vs veh, ZNF148 / RFU, TAF9 / Fold change vs veh, TAF9 / RFU, SLC1A5 / Fold change vs veh, SLC1A5 / RFU, SLMO2 / Fold change vs veh, SLMO2 / RFU, ABCC4 / Fold change vs veh, ABCC4 / RFU, LOC101060439 /// RAP1B / Fold change vs veh, LOC101060439 /// RAP1B / RFU, RFX7 / Fold change vs veh, RFX7 / RFU, GTPBP10 / Fold change vs veh, GTPBP10 / RFU, CNEP1R1 / Fold change vs veh, CNEP1R1 / RFU, BIVM-ERCC5 /// ERCC5 / Fold change vs veh, BIVM-ERCC5 /// ERCC5 / RFU, ILF3 / Fold change vs veh, ILF3 / RFU 11762660_at / Fold change /veh 11762660_at / RFU VCAN (11757783_s_at) / Fold change /veh VCAN (11757783_s_at) / RFU DDX43 (11728927_at) / Fold change /veh DDX43 (11728927_at) / RFU KRT8 (11758188_x_at) / Fold change /veh KRT8 (11758188_x_at) / RFU NKD1 (11759106_at) / Fold change /veh NKD1 (11759106_at) / RFU SRD5A1 (11742802_a_at) / Fold change /veh SRD5A1 (11742802_a_at) / RFU TPSAB1 /// TPSB2 (11721975_s_at) / Fold change /veh TPSAB1 /// TPSB2 (11721975_s_at) / RFU GSTM3 (11746129_a_at) / Fold change /veh GSTM3 (11746129_a_at) / RFU IL23R (11737362_x_at) / Fold change /veh IL23R (11737362_x_at) / RFU TMEM51 (11727254_a_at) / Fold change /veh TMEM51 (11727254_a_at) / RFU PIWIL2 (11732686_x_at) / Fold change /veh PIWIL2 (11732686_x_at) / RFU ORM1 (11744905_x_at) / Fold change /veh ORM1 (11744905_x_at) / RFU CCDC152 (11743942_at) / Fold change /veh CCDC152 (11743942_at) / RFU ECM1 (11717891_a_at) / Fold change /veh ECM1 (11717891_a_at) / RFU IL23R (11748794_a_at) / Fold change /veh IL23R (11748794_a_at) / RFU TNFAIP8L3 (11732012_x_at) / Fold change /veh TNFAIP8L3 (11732012_x_at) / RFU MBOAT4 (11741988_at) / Fold change /veh MBOAT4 (11741988_at) / RFU 11764193_at / Fold change /veh 11764193_at / RFU TMEM53 (11763286_at) / Fold change /veh TMEM53 (11763286_at) / RFU MAGEB2 (11727129_at) / Fold change /veh MAGEB2 (11727129_at) / RFU TMEM200A (11744735_a_at) / Fold change /veh TMEM200A (11744735_a_at) / RFU CCDC152 (11751479_a_at) / Fold change /veh CCDC152 (11751479_a_at) / RFU FAM211A (11726209_a_at) / Fold change /veh FAM211A (11726209_a_at) / RFU RGS16 (11746705_a_at) / Fold change /veh RGS16 (11746705_a_at) / RFU VCAN (11755009_s_at) / Fold change /veh VCAN (11755009_s_at) / RFU RHOB (11743442_s_at) / Fold change /veh RHOB (11743442_s_at) / RFU RGS16 (11720943_a_at) / Fold change /veh RGS16 (11720943_a_at) / RFU RGS16 (11720944_at) / Fold change /veh RGS16 (11720944_at) / RFU, VPS4B / Fold change vs veh, VPS4B / RFU, CREB1 / Fold change vs veh, CREB1 / RFU, DNAJC13 / Fold change vs veh, DNAJC13 / RFU, GNAQ / Fold change vs veh, GNAQ / RFU, CDK5R1 / Fold change vs veh, CDK5R1 / RFU, ZRANB3 / Fold change vs veh, ZRANB3 / RFU, CUL4A / Fold change vs veh, CUL4A / RFU, CCNY / Fold change vs veh, CCNY / RFU, UFL1 / Fold change vs veh, UFL1 / RFU, COG3 / Fold change vs veh, COG3 / RFU, DIAPH2 / Fold change vs veh, DIAPH2 / RFU, SKA2 / Fold change vs veh, SKA2 / RFU, AFF3 / Fold change vs veh, AFF3 / RFU, LMF1 / Fold change vs veh, LMF1 / RFU, IPO11 / Fold change vs veh, IPO11 / RFU, DFFB / Fold change vs veh, DFFB / RFU, FOXP1 / Fold change vs veh, FOXP1 / RFU, CARD8 / Fold change vs veh, CARD8 / RFU, STRN3 / Fold change vs veh, STRN3 / RFU, ADK / Fold change vs veh, ADK / RFU, RASSF2 / Fold change vs veh, RASSF2 / RFU, WIPF1 / Fold change vs veh, WIPF1 / RFU, LARP1B / Fold change vs veh, LARP1B / RFU, RASA1 / Fold change vs veh, RASA1 / RFU, RB1 / Fold change vs veh, RB1 / RFU, PPFIA1 / Fold change vs veh, PPFIA1 / RFU, MAT2A / Fold change vs veh, MAT2A / RFU, CCT5 / Fold change vs veh, CCT5 / RFU, WDR92 / Fold change vs veh, WDR92 / RFU, CUX1 / Fold change vs veh, CUX1 / RFU, TTC7A / Fold change vs veh, TTC7A / RFU, TMEM135 / Fold change vs veh, TMEM135 / RFU, DEPTOR / Fold change vs veh, DEPTOR / RFU, CPM / Fold change vs veh, CPM / RFU, DNAJB6 / Fold change vs veh, DNAJB6 / RFU, CACNA2D3 / Fold change vs veh, CACNA2D3 / RFU, DTX4 / Fold change vs veh, DTX4 / RFU, TFCP2 / Fold change vs veh, TFCP2 / RFU, GMCL1 /// GMCL1P1 / Fold change vs veh, GMCL1 /// GMCL1P1 / RFU, AEBP2 / Fold change vs veh, AEBP2 / RFU, SNHG1 /// SNORD22 /// SNORD25 /// SNORD26 /// SNORD27 /// SNORD28 /// SNORD29 /// SNORD31 / Fold change vs veh, SNHG1 /// SNORD22 /// SNORD25 /// SNORD26 /// SNORD27 /// SNORD28 /// SNORD29 /// SNORD31 / Fold change (Aza/veh), C12orf56 (ProbeSet 11735607_a_at) / Fold change (ACY-1035/veh), C12orf56 (ProbeSet 11735607_a_at) / Fold change (Aza/veh), FGFR1OP (ProbeSet 11751329_s_at) / Fold change (ACY-1035/veh), FGFR1OP (ProbeSet 11751329_s_at) / Fold change (Aza/veh), VPS36 (ProbeSet 11739960_a_at) / Fold change (ACY-1035/veh), VPS36 (ProbeSet 11739960_a_at) / RFU SYPL1 (11715823_x_at) / Fold change /veh SYPL1 (11715823_x_at) / RFU IGFBP7 (11715501_s_at) / Fold change /veh IGFBP7 (11715501_s_at) / RFU REEP3 (11722064_at) / Fold change /veh REEP3 (11722064_at) / RFU IGLL1 (11728026_x_at) / Fold change /veh IGLL1 (11728026_x_at): dose or concentration left out as unconfirmed
Details: MV-4-11 cells, 48 hours

Nc1ncn([C@@H]2O[C@H](CO)[C@@H](O)[C@H]2O)c(=O)n1 [azacitidine]
Fold change /veh MAGEB2 (11727129_at): 2.40
